Assay results reported in patent US20080063628A1, “METHODS TO PROMOTE CELL DIFFERENTIATION” (priority 2006, published 2008).

Test system: early passage (P5) pancreatic-derived stromal cell line
Test: Two high dose trichostatin A treatments (first 48 h), gene expression by RT-PCR (Example 9);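 for HNF-3 beta RT-PCR detection cycle: lower cycle number means higher gene expression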;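 for glucagon RT-PCR detection cycle: lower cycle number means higher gene expression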
Assay type: cell-based, human
Settings: for HNF-3 beta gene expression / Insulin gene expression / Pdx-1 gene expression / glucagon gene expression: 5 μM 0-48 h + 96-120 h
Experimental: Several cell lines obtained from different amniotic fluid specimens (see Example 14) and pancreas donors (see Example 13) were tested with similar results. Two lines at similar passage number but derived from different amniotic fluid specimens are shown in Table VIII-A and Table VIII-B for this example. One of these cell lines was also used in examples 2 and 4 above. In addition, this example also contains comparison data in Table VIII-C and Table VIII-D for a single pancreatic-derived stromal line grown to early and late passage number.
Amniotic fluid derived cells or pancreatic-derived stromal cells were seeded into 24-well tissue culture plates at a density of 5000/cm^2 and cultured in AMNIOMAX (Invitrogen) or DMEM with 10% FBS respectively under standard cell culture conditions until confluent. After reaching confluence, amniotic fluid derived cells were treated at time 0 hours with a dose of 1.25 μM trichostatin A, and pancreatic-derived stromal cells were treated with a dose of 5.0 μM trichostatin A solubilized in DMSO and medium. At time 48 hours, cell cultures underwent a complete medium change to remove all traces of trichostatin A. At time 96 hours, cell cultures were re-fed with fresh medium and received a second dose of trichostatin A at the same concentration as used previously. At time 120 hours, cell cultures again underwent a complete medium change and were cultured for an additional 24 hours or […] total incubation time. Samples were taken for RT-PCR at the times indicated in Table IX-A to D. RNA samples were obtained daily from the start of the experiment. Culture medium was removed, and cells were washed with PBS then collected in RLT with β-mercaptoethanol (Qiagen). RNA was purified using the RNeasy Mini Kit (Qiagen) and RNA quantity and quality was determined using a spectrophotometer. cDNA was made using the iScript cDNA synthesis kit (BioRad). Human pancreas cDNA was included as a control. Results were normalized against GAPDH expression levels.
Gene expression levels of Sox17, HNF-3 beta, Pdx-1, insulin, and glucagon were analyzed in amniotic-derived cells, while expression levels of glucagon, insulin, HNF-3 beta, and Pdx-1 were analyzed in pancreas-derived cells. Samples of 20 ng cDNA was used in each Real-Time PCR reaction. RT-PCR was performed on the Applied Biosystems 7500, according to the methods described in Example 15. The data were analyzed using the accompanying software.
Real-time PCR amplifcation and quantitative analysis. Unless otherwise stated, all reagents were purchased from Applied Biosystems. Real-time PCR reactions were performed using the ABI PRISM™ 7500 Sequence Detection System. TAQMAN™ FAST UNIVERSAL PCR MASTER MIX™ (ABI, CA) was used with 20 ng of reverse transcribed RNA in a total reaction volume of 20 μl. Each cDNA sample was run in duplicate to allow correction of pipetting errors. Primers and FAM-labeled TAQMAN™ probes were used at concentrations of 200 nM. The level of expression for each target gene was normalized using the pre-developed Applied Biosystem's human glyceraldehyde-3-phosphate dehydrogenase (GAPDH) endogenous control kit. Primers and probes were designed using either ABI PRISM PRIMER EXPRESS™ software or a pre-developed ABI gene analysis kit. For each gene, either one of the primers or the probe were designed to be exon-boundary spanning. This eliminated the possibility of the primers/probe binding to any genomic DNA present. The primer and probe sets are listed as follows: Pdx-1 (Hs00426216), Insulin (Hs00355773), glucagon (Hs00174967), and FoxA2 (HNF 3-beta) (Hs00232764). The remaining primers were designed using the PRIMERS program (ABI, CA). After an initial 95° C. incubation for 20 sec, samples were cycled 40 times in two stages: a denaturation step at 95° C. for 3 sec, followed by an annealing/extension step at 60° C. for 30 sec. […]

[1] = 5.0 μM, following the second addition

CC(/C=C/C(=O)NO)=C\[C@@H](C)C(=O)c1ccc(N(C)C)cc1 [trichostatin A]
HNF-3 beta gene expression (24 hrs): +++ (detectable at less than 35 cycles by RT-PCR with SE less than 0.9)
Insulin gene expression (24 hrs): nd (not detectable at >40 cycles by RT-PCR)
Pdx-1 gene expression (24 hrs): +++ (detectable at less than 35 cycles by RT-PCR with SE less than 0.9)
glucagon gene expression (24 hrs): +++ (detectable at less than 35 cycles by RT-PCR with SE less than 0.9)
HNF-3 beta gene expression (48 hrs): +++ (detectable at less than 35 cycles by RT-PCR with SE less than 0.9)
Insulin gene expression (48 hrs): nd (not detectable at >40 cycles by RT-PCR)
Pdx-1 gene expression (48 hrs): +++ (detectable at less than 35 cycles by RT-PCR with SE less than 0.9)
glucagon gene expression (48 hrs): +++ (detectable at less than 35 cycles by RT-PCR with SE less than 0.9)
HNF-3 beta gene expression (72 hrs): nd (not detectable at >40 cycles by RT-PCR)
Insulin gene expression (72 hrs): +++ (detectable at less than 35 cycles by RT-PCR with SE less than 0.9)
Pdx-1 gene expression (72 hrs): nd (not detectable at >40 cycles by RT-PCR)
glucagon gene expression (72 hrs): + (detectable between 35 and 40 cycles by RT-PCR)
HNF-3 beta gene expression (96 hrs): nd (not detectable at >40 cycles by RT-PCR)
Insulin gene expression (96 hrs): nd (not detectable at >40 cycles by RT-PCR)
Pdx-1 gene expression (96 hrs): nd (not detectable at >40 cycles by RT-PCR)
glucagon gene expression (96 hrs): + (detectable between 35 and 40 cycles by RT-PCR)
HNF-3 beta gene expression (120 hrs): +++ (detectable at less than 35 cycles by RT-PCR with SE less than 0.9)
Insulin gene expression (120 hrs): nd (not detectable at >40 cycles by RT-PCR)
Pdx-1 gene expression (120 hrs): +++ (detectable at less than 35 cycles by RT-PCR with SE less than 0.9)
glucagon gene expression (120 hrs): + (detectable between 35 and 40 cycles by RT-PCR)
Pdx-1 RT-PCR detection cycle (5.0 μM, 48 hours): 32 cycles
glucagon RT-PCR detection cycle (5.0 μM, 48 hours): 33 cycles
glucagon RT-PCR detection cycle (5.0 μM, after trichostatin A was removed): 38 cycles
Insulin RT-PCR detection cycle (5.0 μM, following the medium change): 33 cycles
Pdx-1 RT-PCR detection cycle [1]: 32 cycles
glucagon RT-PCR detection cycle [1]: 37 cycles
glucagon RT-PCR detection cycle (5.0 μM, following treatment): 35 cycles
HNF-3 beta RT-PCR detection cycle (5.0 μM, following treatment until removal): 34 cycles
HNF-3 beta RT-PCR detection cycle (5.0 μM, when trichostatin A was added again): 33 cycles
